Structures can show the parent of a compound that is named as a salt.
How the values were obtained:
[1] = obesity model, reduction of food intake in Zucker rats; assay type: in vivo
Experimental: (§1) To evaluate acute in vivo efficacy of various compounds, 7 weeks-old male C57BL/6J mice are obtained from The Jackson Laboratory (Bar Harbor, Me.) and 6 weeks-old lean Zucker fa/? rats are purchased from Charles River Laboratories (Wilmington, Mass.). Mice and rats are single housed in a temperature-controlled (25° C.) facility with a 12-h light/dark cycle. Animals are allowed normal chow diet (Rodent chow #5001, PharmaServ, Framingham, Mass.) and water ad libitum. After one week acclimation, animals are randomized to vehicle (saline) or treatment groups. Animals are fasted overnight (16 hrs) and orally dosed with vehicle or compounds. Thirty minutes after compound administration, animals are given a weighed amount of food, and food intake was recorded 30 minutes, 1 h, 2 h, 4 h, 7 h and 24 h after refeeding.
(§2) To assess in vivo efficacy of various 5-HT2C compounds on weight loss, 5 weeks-old male C57BL/6J-DIO mice were fed a high-fat high-sucrose diet (58 kcal % fat, 16.4 kcal % protein, 25.5 kcal % carbohydrate) for 11 weeks. 6 weeks-old male Zucker fa/fa rats purchased from Charles River Laboratories were also used. Mice and rats were single housed in a temperature-controlled (25° C.) facility with a 12-h light/dark cycle. Animals were allowed food and water ad libitum. After one week acclimation, animals were randomized to vehicle (saline) or treatment groups. Animals were orally dosed once daily for 14 days. Body weight, food consumption, and/or body composition (NMR) were recorded. Epidydimal adipose tissue was collected at the end of the study.

[2] = biological target: T1, human 5-HT2C receptor (Homo sapiens, UniProt P28335); experiment: calcium mobilization (FLIPR) in CHO cells stably expressing the human 5-HT2C receptor; assay type: cell-based; settings: for Emax: CHO, read-out: 5-HT2C Function EMax (%); for EC50: calcium mobilization, read-out: 5-HT2C Function EC50
T1 sequence (P28335 33-458): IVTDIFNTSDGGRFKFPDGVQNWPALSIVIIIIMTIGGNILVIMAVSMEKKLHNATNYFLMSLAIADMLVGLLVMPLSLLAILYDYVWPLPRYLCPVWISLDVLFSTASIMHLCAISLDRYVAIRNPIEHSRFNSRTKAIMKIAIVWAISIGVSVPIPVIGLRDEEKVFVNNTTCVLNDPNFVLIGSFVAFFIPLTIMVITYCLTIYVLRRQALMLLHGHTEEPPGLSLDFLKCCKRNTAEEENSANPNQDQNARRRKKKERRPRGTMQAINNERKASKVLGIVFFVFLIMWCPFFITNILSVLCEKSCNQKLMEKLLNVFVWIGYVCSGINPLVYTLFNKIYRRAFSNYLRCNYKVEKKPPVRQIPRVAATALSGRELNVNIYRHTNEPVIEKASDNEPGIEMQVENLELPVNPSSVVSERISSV

[3] = biological target: T2, human 5-hydroxytryptamine-2C (h5-HT2C) receptor (Homo sapiens, UniProt P28335); experiment: [125I]DOI binding to membranes of CHO cells expressing h5-HT2C receptor; settings: read-out: 5-HT2C Binding Ki avg
T2 construct: expressed in transfected cells; host or cells: CHO (Chinese Hamster Ovary) cells; membrane preparation
T2 sequence (P28335 33-458): T1 sequence (P28335 33-458)

[4] = obesity model, reduction of food intake in C57BL/6J-DIO mice; assay type: in vivo
Experimental: as §1, §2

For NC[C@H]1C=Cc2cc(F)cc(-c3ccccc3Cl)c2O1 (as salt: hydrochloride) [Compound 64, {[(2R)-8-(2-chlorophenyl)-6-fluoro-2H-chromen-2-yl]methyl}amine hydrochloride], the melting point was 145 to 147 °C.

With NC[C@H]1C=Cc2cc(F)cc(-c3c(Cl)cccc3Cl)c2O1 (as salt: hydrochloride) [Compound 66, {[(2R)-8-(2,6-dichlorophenyl)-6-fluoro-2H-chromen-2-yl]methyl}amine hydrochloride] the melting point was 153 to 155 °C.

NC[C@H]1CCc2cc(F)cc(-c3c(Cl)cccc3Cl)c2O1 (as salt: hydrochloride) [Compound 57, {[(2R)-8-(2,6-dichlorophenyl)-6-fluoro-3,4-dihydro-2H-chromen-2-yl]methyl}amine hydrochloride] showed a melting point of 190 to 192 °C.

For NC[C@H]1C=Cc2cc(F)cc(-c3cc(Cl)ccc3Cl)c2O1 (as salt: hydrochloride) [Compound 63, {[(2R)-8-(2,5-dichlorophenyl)-6-fluoro-2H-chromen-2-yl]methyl}amine hydrochloride], the melting point was 217 to 219 °C.

In the case of COc1ccccc1-c1cc(F)cc2c1O[C@@H](CN)C=C2 (as salt: hydrochloride) [Compound 65, {[(2R)-6-fluoro-8-(2-methoxyphenyl)-2H-chromen-2-yl]methyl}amine hydrochloride], the melting point is reported as 198 to 200 °C.

Work on NC[C@H]1CCc2ccc(F)c(-c3ccccc3Cl)c2O1 (as salt: hydrochloride) [Compound 71, ((2R)-8-(2-chlorophenyl)-7-fluorochroman-2-yl)methanamine hydrochloride] yielded a melting point of 223 to 225 °C.

For NC[C@H]1CCc2cccc(-c3c(Cl)cccc3Cl)c2O1 [Compound 36, {[(2R)-8-(2,6-dichlorophenyl)-3,4-dihydro-2H-chromen-2-yl]methyl}amine hydrochloride], the “% Reduction food intake (vs vehicle)” value ([1]; 30 mpk oral, 0.5 hour) was 0 ± 16%, the “% Reduction food intake (vs vehicle)” value ([1]; 30 mpk oral, 2 hours) was 0 ± 8% and the “% Reduction food intake (vs vehicle)” value ([1]; 30 mpk oral, 4 hours) was 0 ± 9%. The “% Reduction food intake (vs vehicle)” value ([1]; 50 mpk oral, 0.5 hour) was 58 ± 9%, the “% Reduction food intake (vs vehicle)” value ([1]; 50 mpk oral, 2 hours) was 11 ± 17% and the “% Reduction food intake (vs vehicle)” value ([1]; 50 mpk oral, 4 hours) was 0 ± 13%. For the same compound, the Emax [2] was 80%, the EC50 [2] was less than 50 nM and the Ki [3] was no more than 10 nM. The “% Reduction food intake (vs vehicle)” value ([4]; 30 mpk oral, 0.5 hour) was 86 ± 11%, the “% Reduction food intake (vs vehicle)” value ([4]; 30 mpk oral, 2 hours) was 72 ± 7% and the “% Reduction food intake (vs vehicle)” value ([4]; 30 mpk oral, 4 hours) was 65 ± 8%. The “% Reduction food intake (vs vehicle)” value ([4]; 50 mpk oral, 0.5 hour) was 83 ± 6%, the “% Reduction food intake (vs vehicle)” value ([4]; 50 mpk oral, 2 hours) was 77 ± 6% and the “% Reduction food intake (vs vehicle)” value ([4]; 50 mpk oral, 4 hours) was 67 ± 9%.

NC[C@H]1CCc2cccc(-c3c(Cl)cccc3Cl)c2O1 (as salt: hydrochloride) [Compound 36, {[(2R)-8-(2,6-dichlorophenyl)-3,4-dihydro-2H-chromen-2-yl]methyl}amine hydrochloride] gave a melting point of 188 to 190 °C.

CCNC[C@H]1CCc2cc(F)cc(-c3c(Cl)cccc3Cl)c2O1 (as salt: hydrochloride) [Compound 58, N-{[(2R)-8-(2,6-dichlorophenyl)-6-fluoro-3,4-dihydro-2H-chromen-2-yl]methyl}ethanamine hydrochloride] showed a melting point greater than 225 °C.

Work on NC[C@H]1CCc2ccc(F)c(-c3ccc(Cl)cc3Cl)c2O1 (as salt: hydrochloride) yielded a melting point of 164 to 166 °C.

For COc1ccccc1-c1cc(F)cc2c1O[C@@H](CN)CC2 (as salt: hydrochloride) [Compound 38, 1-[(2R)-6-fluoro-8-(2-methoxyphenyl)-3,4-dihydro-2H-chromen-2-yl]methanamine hydrochloride], the melting point was 100 °C (dec.).

Compound Cc1cc(Cl)ccc1-c1c(F)ccc2c1O[C@@H](CN)CC2 (as salt: hydrochloride) [Compound 72, ((2R)-8-(4-Chloro-2-methylphenyl)-7-fluorochroman-2-yl)methanamine hydrochloride] has a melting point of 100 to 102 °C.

In the case of NC[C@H]1CCc2cccc(-c3cccnc3)c2O1 [Compound 18, {[(2R)-8-pyridin-3-yl-3,4-dihydro-2H-chromen-2-yl]methyl}amine hydrochloride], the Emax [2] is reported as 90%, the EC50 [2] is reported as less than 50 nM and the Ki [3] is reported as greater than 50 nM.

With NCC1C=Cc2cc(F)cc(-c3ccccc3Cl)c2O1 (centres unmarked) [Compound 62, {[8-(2-chlorophenyl)-6-fluoro-2H-chromen-2-yl]methyl}amine hydrochloride] the Emax [2] was 100%, the EC50 [2] was less than 50 nM and the Ki [3] was 10 to 50 nM.

NC[C@H]1CCc2cc(F)cc(-c3ccc(Cl)cc3Cl)c2O1 [Compound 47, {[(2R)-8-(2,4-dichlorophenyl)-6-fluoro-3,4-dihydro-2H-chromen-2-yl]methyl}amine hydrochloride] gave an Emax [2] of 90%, an EC50 [2] of 50 to 200 nM and a Ki [3] greater than 50 nM.

In the case of NCC1CCc2cccc(-c3ccccc3Cl)c2O1 (centres unmarked) [Compound 2, {[8-(2-chlorophenyl)-3,4-dihydro-2H-chromen-2-yl]methyl}amine trifluoroacetate], the Emax [2] is reported as 80%, the EC50 [2] is reported as less than 50 nM and the Ki [3] is reported as no more than 10 nM.

NC[C@H]1CCc2cc(F)cc(-c3cccnc3)c2O1 [Compound 50, {[(2R)-6-fluoro-8-pyridin-3-yl-3,4-dihydro-2H-chromen-2-yl]methyl}amine hydrochloride] gave an Emax [2] of 90%, an EC50 [2] of less than 50 nM and a Ki [3] of 10 to 50 nM.

CNC[C@H]1CCc2cccc(-c3cc(Cl)ccc3Cl)c2O1 [Compound 3, {[(2R)-8-(2,5-dichlorophenyl)-3,4-dihydro-2H-chromen-2-yl]methyl}methylamine hydrochloride] gave an Emax [2] of 90%, an EC50 [2] of less than 50 nM and a Ki [3] of no more than 10 nM.

Compound Cc1ccccc1-c1c(Cl)ccc2c1O[C@@H](CN)CC2 (as salt: hydrochloride) [Compound 69, ((2R)-7-Chloro-8-o-tolylchroman-2-yl)methanamine hydrochloride] has a melting point of 155 °C.

For NC[C@H]1CCc2ccc(Cl)c(-c3ccccc3Cl)c2O1 (as salt: hydrochloride), the melting point was 220 to 222 °C.

Compound Cc1ccccc1-c1cc(F)cc2c1O[C@@H](CN)CC2 [Compound 49, {[(2R)-6-fluoro-8-(2-methylphenyl)-3,4-dihydro-2H-chromen-2-yl]methyl}amine hydrochloride] has an Emax [2] of 90%, an EC50 [2] of less than 50 nM and a Ki [3] of no more than 10 nM.

Compound Cc1ccccc1-c1cccc2c1O[C@@H](CN)CC2 [Compound 17, {[(2R)-8-(2-methylphenyl)-3,4-dihydro-2H-chromen-2-yl]methyl}amine hydrochloride] has an Emax [2] of 80%, an EC50 [2] of less than 50 nM and a Ki [3] of no more than 10 nM.

Work on NC[C@H]1CCc2cc(F)cc(-c3ccccc3-c3ccccc3)c2O1 (as salt: hydrochloride) yielded a melting point of 98 °C.

Work on NC[C@H]1C=Cc2cc(F)cc(-c3cc(Cl)ccc3Cl)c2O1 [Compound 63, {[(2R)-8-(2,5-dichlorophenyl)-6-fluoro-2H-chromen-2-yl]methyl}amine hydrochloride] yielded an Emax [2] of 90%, an EC50 [2] of less than 50 nM and a Ki [3] of no more than 10 nM.

CNC[C@H]1CCc2cccc(-c3ccccc3)c2O1 [Compound 5, N-methyl-N-{[(2R)-8-phenyl-3,4-dihydro-2H-chromen-2-yl]methyl}amine hydrochloride] gave an Emax [2] of 90%, an EC50 [2] of 50 to 200 nM and a Ki [3] of no more than 10 nM.
